From publication PMC4545913, “Dual EZH2 and EHMT2 histone methyltransferase inhibition increases biological efficacy in breast cancer cells” (Clinical Epigenetics, 2015) come the findings set out here.

Assay [1] relates to MDA-MB-231 cells. Description: Clonogenic growth assay. Type of assay: cell-based. Particulars: Homo sapiens; MDA-MB-231, 48 h treatment then 12 days in fresh media. As for the experimental part: (§1) For clonogenic assays, cells were treated with compound for 48 h, media were removed and replaced with fresh media for a further 12 days to measure colony formation. For cell viability assays, lymphoma cells were plated at 20,000 cells in 200 μl per well in U-bottom 96 well plates in RPMI medium +20 % FCS. Cells were re-suspended 48 h later, diluted 10-fold in PBS + propidium iodide (PI) and the concentration of PI negative cells was counted using an Attune flow cytometer with autosampler. Breast cancer cells were seeded at a density of 10,000 cells/well in a sterile 96 clear-well plate with 150 μl of DMEM (+10 % FCS and 2 mM L-Glutamine). Each compound treatment was performed in triplicate for 72 h at concentrations of 100 nM and 1, 5, 10 and 50 μM in 100 μl of full-medium. After 72 h, 20 μl of MTT solution (3 mg of MTT Formazan, Sigma/1 ml PBS) was added to the medium and incubated for 4 h at 37 °C in a CO2 incubator. The MTT-product was solubilised with 100 μl DMSO, and for 1 h, incubated in the dark at room temperature. The optical density was read at 570 nm with PHERAstar.

For assay [2], the system named is BT-474. Description: MTT cell viability assay. In kind it is cell-based. To be noted: Homo sapiens, read-out: Cell growth IC50 BT-474. The procedure: as §1
The subject of assay [3] is MCF-7. Description: MTT cell viability assay. In kind it is cell-based. To be noted: Homo sapiens, MCF7, read-out: Cell growth IC50 MCF-7. The procedure: as §1
Assay [4] has as its system SkBr3. Briefly: MTT cell viability assay. Type of assay: cell-based. To be noted: Homo sapiens, SK-BR-3, read-out: Cell growth IC50 SkBr3. The procedure: as §1
(Tetrazolium dyes change colour on reduction, which living cells bring about.)

Assay [5] has as its system T-47D. Briefly: MTT cell viability assay. In kind it is cell-based. Particulars: Homo sapiens, T47D, read-out: Cell growth IC50 T-47D. As for the experimental part: as §1
The test system of assay [6] is MCF10a. Briefly: MTT cell viability assay, normal breast epithelial cell line. Type of assay: cell-based. Particulars: Homo sapiens, MCF-10A, read-out: Cell growth IC50 MCF10a. The procedure:
as §1

In assay [7] the target is trimeric PRC2 complex (EZH2:EED:SUZ12) (Homo sapiens, UniProt O75530+Q15022+Q15910). Description: PRC2 enzymatic assay (SPA-type), biotinylated-H3 (21–44) peptide substrate. Type of assay: biochemical. To be noted: EZH2:EED:SUZ12, biotinylated-H3 (21–44) peptide substrate. An excerpt: (§2) A trimeric PRC2 complex (EZH2:EED:SUZ12) was employed in this assay, along with a biotinylated-H3 (21–44) peptide substrate. […] Since the peptide substrates used in these assays are poor models for the complex and dynamic structure of the chromatin substrate in cells and since the only minimal number of PRC2 proteins (EZH2:EED:SUZ12) required for enzymatically active EZH2 were employed in the PRC2 assay, care should be taken in the over interpretation of this in vitro inhibitory data.

Assay [8] concerns the target trimeric PRC2 complex (EZH2:EED:SUZ12) (Homo sapiens, UniProt Q15910). The assay is described as above. In kind it is biochemical. To be noted: mechanism of inhibition studies (Figure S4).
Source text: as §2

For assay [9], the system named is H3K27me3 and H3K9me3 at target genes. Briefly: Chromatin immunoprecipitation (ChIP-PCR) in MDA-MB-231 cells. In kind it is cell-based. Particulars: MDA-MB-231, 2.5 μM, 24 h. An excerpt:
Fig. 3 Effects of hit compounds on RNA levels and histone marks. a Sybr green real-time PCR mRNA level measurement of EZH2 target genes and executing enzymes following a 48-h compound treatment at different concentrations of MDA-MB-231 cells. Measurements marked with an ‘*’ are below detection limit, most likely due to cell death. […] Error bars represent the mean ± SD of experiment performed in technical triplicate. b Sybr green real-time PCR measurement of the FBXO32 transcription start site and KRT17 promoter region following chromatin immunoprecipitation, using antibodies to the histone marks shown, of MDA-MB-231 cells treated with three selected compounds at 5 μM for 72 h. […] The fold difference to the untreated sample is shown. Each IP-value has been determined as the relative increase to the no-antibody control and then normalised to GAPDH levels
Fig. 4 Compound-induced upregulation of EZH2-repressed target genes. a Enrichment scores for differential expression of EZH2 targets on treatment with panel of compounds. […] Each IP-value has been determined as the relative increase to the no-antibody control and is shown as fold difference relative to the untreated control. d Western blot showing levels of modified histones, following a 48-h treatment with HKMTI-1-005 at different doses. […]

In assay [10] the test system is MDA-MB-231 cells. Briefly: Caspase 3/7 activity (apoptosis). In kind it is cell-based. To be noted: MDA-MB-231, dose-dependent (Figure S2).

pIC50: −log10 of the molar value. Where only a bound is given, the exact number is not on record here.

Sequence of trimeric PRC2 complex (EZH2:EED:SUZ12) (Homo sapiens, UniProt Q15910) (Q15910 whole entry): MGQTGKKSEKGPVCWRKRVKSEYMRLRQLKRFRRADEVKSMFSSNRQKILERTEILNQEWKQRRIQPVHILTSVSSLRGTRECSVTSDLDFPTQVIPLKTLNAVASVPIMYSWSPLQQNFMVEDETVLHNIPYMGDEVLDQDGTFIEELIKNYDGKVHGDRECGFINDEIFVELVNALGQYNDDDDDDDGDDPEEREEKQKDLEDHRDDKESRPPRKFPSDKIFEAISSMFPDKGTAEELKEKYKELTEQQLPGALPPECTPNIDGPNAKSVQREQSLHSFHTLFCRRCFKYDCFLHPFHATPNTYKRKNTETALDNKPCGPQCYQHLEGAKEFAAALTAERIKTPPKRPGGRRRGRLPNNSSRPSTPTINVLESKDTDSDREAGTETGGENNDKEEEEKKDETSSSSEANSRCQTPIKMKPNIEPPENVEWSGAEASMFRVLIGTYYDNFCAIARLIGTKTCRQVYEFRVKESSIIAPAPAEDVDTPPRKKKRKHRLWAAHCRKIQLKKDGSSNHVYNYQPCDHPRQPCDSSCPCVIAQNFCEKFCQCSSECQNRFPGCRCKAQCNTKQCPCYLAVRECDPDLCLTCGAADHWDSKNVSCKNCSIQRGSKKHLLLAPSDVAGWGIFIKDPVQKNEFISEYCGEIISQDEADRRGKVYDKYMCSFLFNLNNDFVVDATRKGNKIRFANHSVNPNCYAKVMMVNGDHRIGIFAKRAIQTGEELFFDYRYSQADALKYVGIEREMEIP
Sequence of trimeric PRC2 complex (EZH2:EED:SUZ12) (Homo sapiens, UniProt Q15910) (O75530 whole entry partner): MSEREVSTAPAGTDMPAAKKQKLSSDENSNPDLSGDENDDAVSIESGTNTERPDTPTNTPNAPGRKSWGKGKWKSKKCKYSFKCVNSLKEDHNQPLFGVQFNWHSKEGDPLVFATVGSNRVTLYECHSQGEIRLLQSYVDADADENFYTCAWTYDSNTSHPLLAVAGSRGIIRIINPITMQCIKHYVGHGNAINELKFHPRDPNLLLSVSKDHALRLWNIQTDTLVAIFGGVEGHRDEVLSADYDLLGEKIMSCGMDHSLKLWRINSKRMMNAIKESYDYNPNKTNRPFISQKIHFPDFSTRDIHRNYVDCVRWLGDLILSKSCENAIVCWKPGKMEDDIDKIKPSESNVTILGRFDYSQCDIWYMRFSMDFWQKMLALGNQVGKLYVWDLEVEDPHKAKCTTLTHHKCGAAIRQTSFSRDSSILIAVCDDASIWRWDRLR
Sequence of trimeric PRC2 complex (EZH2:EED:SUZ12) (Homo sapiens, UniProt Q15910) (Q15022 whole entry partner): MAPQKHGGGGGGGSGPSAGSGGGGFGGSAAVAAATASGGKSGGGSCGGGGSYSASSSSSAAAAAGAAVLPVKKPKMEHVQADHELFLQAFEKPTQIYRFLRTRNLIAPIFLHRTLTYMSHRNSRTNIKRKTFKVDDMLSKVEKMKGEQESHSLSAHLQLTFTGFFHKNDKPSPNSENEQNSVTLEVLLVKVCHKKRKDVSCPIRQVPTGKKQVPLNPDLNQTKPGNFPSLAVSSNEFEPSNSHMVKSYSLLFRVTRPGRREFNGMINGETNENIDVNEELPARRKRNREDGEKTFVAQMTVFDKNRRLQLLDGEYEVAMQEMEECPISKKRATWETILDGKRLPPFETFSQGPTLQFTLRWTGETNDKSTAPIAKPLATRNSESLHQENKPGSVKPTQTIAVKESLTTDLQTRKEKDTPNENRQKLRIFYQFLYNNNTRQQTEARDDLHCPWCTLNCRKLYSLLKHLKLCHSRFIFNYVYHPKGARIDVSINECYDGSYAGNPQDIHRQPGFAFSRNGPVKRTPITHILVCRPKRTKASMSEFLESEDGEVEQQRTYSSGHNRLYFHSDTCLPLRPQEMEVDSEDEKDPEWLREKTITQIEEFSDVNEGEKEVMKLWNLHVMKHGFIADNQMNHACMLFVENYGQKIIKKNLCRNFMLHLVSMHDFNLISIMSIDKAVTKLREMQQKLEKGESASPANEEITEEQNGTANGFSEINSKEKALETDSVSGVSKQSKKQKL
Sequence of trimeric PRC2 complex (EZH2:EED:SUZ12) (Homo sapiens, UniProt O75530+Q15022+Q15910) (Q15910 whole entry): as the sequence (Q15910 whole entry) above
Sequence of trimeric PRC2 complex (EZH2:EED:SUZ12) (Homo sapiens, UniProt O75530+Q15022+Q15910) (O75530 whole entry partner): as the sequence (O75530 whole entry partner) above
Sequence of trimeric PRC2 complex (EZH2:EED:SUZ12) (Homo sapiens, UniProt O75530+Q15022+Q15910) (Q15022 whole entry partner): as the sequence (Q15022 whole entry partner) above

In general, pIC50 refers to the IC50 on a negative log10 scale, so that one unit is a factor of ten. `COc1cc2nc(N3CCN(C)CC3)nc(NC3CCN(Cc4ccccc4)CC3)c2cc1OC` [HKMTI-1-005]: the pIC50 was 6.39 in [1]; 5.68 in assay [2]; 5.11 in assay [3]; 5.11 in [4]; 5.07 in assay [5]; less than 4.82 in [6]. This compound also gave a pIC50 in [7] of 4.62. Also, in assay [8], the “Mechanism of PRC2 inhibition” value was “peptide substrate competitive”. In addition, the “H3K27me3 and H3K9me3 at the SPINK1 transcription start site (ChIP-PCR)” value in assay [9] was “reduction in both H3K27me3 and H3K9me3”. Moreover, the “Induction of apoptosis measured by Caspase 3/7 activity” value in assay [10] is “induces apoptosis”.
